Assay results taken from ChEMBL document CHEMBL3785052, “Novel spiropyrazolone antitumor scaffold with potent activity: Design, synthesis and structure-activity relationship” (Eur J Med Chem, 2016).

What was measured:
MDA-MB-231 = experiment: Cytotoxicity against human MDA-MB-231 cells assessed as growth inhibition after 72 hrs by MTT assay; type: functional, cell-based; details: MDA-MB-231, 72 h
[1] = Cytotoxicity against human HCT116 cells assessed as growth inhibition after 72 hrs by MTT assay; type: functional, cell-based; details: HCT-116, 72 h
A549 = experiment: Cytotoxicity against human A549 cells assessed as growth inhibition after 72 hrs by MTT assay; type: functional, cell-based; details: A549, 72 h
HCT-116 [2] = experiment: Induction of apoptosis in human HCT116 cells assessed as apoptotic cells at 5 uM after 24 hrs by annexin V-FITC/propidium iodide staining based flow cytometric analysis; type: functional
HCT-116 [3] = experiment: Induction of apoptosis in human HCT116 cells assessed as apoptotic cells at 5 uM after 48 hrs by annexin V-FITC/propidium iodide staining based flow cytometric analysis; type: functional

Structure (SMILES)	IC50 (MDA-MB-231) [µM]	IC50 [1] [µM]	IC50 (A549) [µM]	Activity (HCT-116 [2]) [%]	Activity (HCT-116 [3]) [%]
CC1=NN(c2ccccc2)C(=O)[C@@]12C(=O)C=CC[C@H]2c1cccc(C)c1	6.61	5.82	3.5		
CC1=NN(c2ccccc2)C(=O)[C@@]12C(=O)C=CC[C@H]2c1ccccc1	5.5	4.4	3.77		
CC1=NN(c2ccccc2)C(=O)[C@]12C(=O)C=CC[C@H]2c1ccccc1[N+](=O)[O-]	32.4	11.2	12.9		
CC1=NN(c2ccccc2)C(=O)[C@@]12C(=O)C=CC[C@H]2c1ccc(C)cc1	8.3	5.21	6.09		
CC1=NN(c2ccccc2)C(=O)[C@]12C(=O)C=CC[C@H]2c1ccc(C)cc1	5.72	4.22	2.89		
CC1=NN(c2ccc(C)cc2)C(=O)[C@@]12C(=O)C=CC[C@H]2c1ccc(C)cc1	9.2	3.62	6.79		
CC1=NN(c2ccc(C)cc2)C(=O)[C@]12C(=O)C=CC[C@H]2c1ccc(C)cc1	8.28	3.53	7.52		
COc1ccccc1[C@@H]1CC=CC(=O)[C@]12C(=O)N(c1ccccc1)N=C2C	5.14	2.85	3.96	68.44	72.13
CC1=NN(c2ccccc2)C(=O)[C@]12C(=O)C=CC[C@H]2c1ccccc1	5.8	5.3	8.29		
CC1=NN(c2ccccc2)C(=O)[C@]12C(=O)C=CC[C@H]2c1cccc(C)c1	10.3	9.58	13.1		
CC1=NN(c2ccccc2)C(=O)[C@@]12C(=O)C=CC[C@@H]2c1ccccc1 (racemic)	9.31	6.07	7.77		
CC1=NN(c2ccccc2)C(=O)[C@@]12C(=O)C=CC[C@@H]2c1cccc(C)c1 (racemic)	6.8	3.8	4.51		
CC1=NN(c2ccc(C)cc2)C(=O)[C@@]12C(=O)C=CC[C@@H]2c1ccc(C)cc1 (racemic)	8.12	4.15	4.32		
CC1=NN(c2ccc(C)cc2)C(=O)[C@]12C(=O)C=CC[C@@H]2c1ccc(C)cc1 (racemic)	57.2	14.6	54.2		
CC1=NN(c2ccccc2)C(=O)[C@]12C(=O)C=CC[C@@H]2c1ccc(C)cc1 (racemic)	6.24	5.8	8.6		
CC1=NN(c2ccccc2)C(=O)[C@]12C(=O)C=CC[C@@H]2c1cccc(C)c1 (racemic)	8	5.49	4.77		
COc1ccccc1[C@H]1CC=CC(=O)[C@@]12C(=O)N(c1ccccc1)N=C2C (racemic)	15.7	13.9	18.7		
CC1=NN(c2ccccc2)C(=O)[C@@]12C(=O)C=CC[C@@H]2c1ccc(C)cc1 (racemic)	7.42	5.22	6.57		
CC1=NN(c2ccccc2)C(=O)[C@]12C(=O)C=CC[C@@H]2c1ccccc1 (racemic)	9.08	6.04	9.18		
CC1=NN(c2ccccc2)C(=O)[C@@]12C(=O)C=CC[C@@H]2c1ccccc1[N+](=O)[O-] (racemic)	68.3	66.8	66.4		
COc1cccc2c1C(=O)c1c(O)c3c(c(O)c1C2=O)C[C@@](O)(C(=O)CO)C[C@@H]3O[C@H]1C[C@H](N)[C@H](O)[C@H](C)O1 [DOXORUBICIN]	0.45				
O=C(CCCCCCC(=O)Nc1ccccc1)NO [VORINOSTAT]				42.2	62.4
